The molecules below were run on TEAD-dependent transcription (assay: TEAD-dependent transcription cell-based reporter assay (MSTO-211H+12XGTIIC luciferase)). Details: Homo sapiens; MSTO-211H+12XGTIIC cell line, luciferase signal normalized to cell viability, 24 hours compound incubation; read-out: MSTO-211H GMean IC50 (uM) Cell Assay Reporter Cell Variant: TEAD.
Set-up: species or system human
In short: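 MSTO-211H mesothelioma cells stably carrying a 12xGTIIC TEAD-response-element luciferase reporter, treated with serial compound dilutions for 24 h at 37 °C. Luminescence normalized to CellTiter-Fluor viability signal; % inhibition versus DMSO and 20 μM K-975 controls, IC50 by nonlinear regression.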

**Q.** With `CS(=O)(=O)CCC(=O)N1CCc2ccc(Oc3ccc(C(F)(F)F)cc3)cc2C1` [P-0018, 3-(methylsulfonyl)-1-(7-(4-(trifluoromethyl)phenoxy)-3,4-dihydroisoquinolin-2(1H)-yl)propan-1-one] as the molecule, how does the IC50 read?
**A.** 0.001 to 10 µM

**Q.** `CS(=O)(=O)c1nccc(N2CCc3ccc(Oc4ccc(C(F)(F)F)cc4)cc3C2)n1` [P-0226, 2-(2-(methylsulfonyl)-pyrimidin-4-yl)-7-(4-(trifluoromethyl)phen-oxy)-1,2,3,4-tetrahydro-isoquinoline] was tested. Which IC50 did it give?
**A.** 0.001 to 10 µM

**Q.** Which IC50 does the source give for `CS(=O)(=O)CCC(=O)N1CCc2ccc(Oc3ccc(C(F)(F)F)cc3)c(/C=C/C3CC3)c2C1` [P-0220, (E)-1-(8-(2-cyclopropyl-vinyl)-7-(4-(trifluoro-methyl)phenoxy)-3,4-dihydroisoquinolin-2(1H)-yl)-3-(methylsul-fonyl)propan-1-one] here?
**A.** 0.001 to 10 µM

**Q.** For `CS(=O)(=O)NCCC(=O)N1CCc2ccc(Oc3ccc(C(F)(F)F)cc3)cc2C1` [P-0101, N-(3-oxo-3-(7-(4-(trifluoromethyl)phen-oxy)-3,4-dihydroisoquin-olin-2(1H)-yl)propyl)-methanesulfonamide], which IC50 is on record?
**A.** 0.001 to 10 µM

**Q.** Which IC50 does the source give for `CS(=O)(=O)CCC(=O)N1CCc2ccc(Oc3ccc(C(F)(F)F)cc3)cc2C1C1CCOCC1` (stereo not drawn) [P-0211, 3-(methylsulfonyl)-1-(1-(tetrahydro-2H-pyran-4-yl)-7-(4-(trifluorometh-yl)phenoxy)-3,4-dihydro-isoquinolin-2(1H)-yl)-propan-1-one] here?
**A.** 0.001 to 10 µM

**Q.** Which IC50 does the source give for `CC(C)(C)OC(=O)NCC(=O)N1CCc2ccc(Oc3ccc(C(F)(F)F)cc3)cc2C1` [P-0131, tert-butyl (2-oxo-2-(7-(4-(trifluoromethyl)phen-oxy)-3,4-dihydroisoquin-olin-2(1H)-yl)ethyl)-carbamate] here?
**A.** 0.001 to 10 µM

**Q.** With `CS(=O)(=O)c1cccnc1C(=O)N1CCc2ccc(Oc3ccc(C(F)(F)F)cc3)cc2C1` [P-0074, (3-(methylsulfonyl)pyr-idin-2-yl)(7-(4-(trifluoro-methyl)phenoxy)-3,4-dihydroisoquinolin-2(1H)-yl)methanone] as the molecule, how does the IC50 read?
**A.** 0.001 to 10 µM

**Q.** For `CCC(=O)CN1CCc2ccc(Oc3ccc(C(F)(F)F)cc3)cc2C1` [P-0028, 1-(7-(4-(trifluorometh-yl)phenoxy)-3,4-dihydro-isoquinolin-2(1H)-yl)-butan-2-one], which IC50 is on record?
**A.** 10 to 100 µM

**Q.** For `CC(C)=Cc1c(Oc2ccc(C(F)(F)F)cc2)ccc2c1CN(C(=O)CCS(C)(=O)=O)CC2` [P-0221, 1-(8-(2-methylprop-1-en-1-yl)-7-(4-(trifluorometh-yl)phenoxy)-3,4-dihydro-isoquinolin-2(1H)-yl)-3-(methylsulfonyl)pro-pan-1-one], which IC50 is on record?
**A.** 0.001 to 10 µM

**Q.** `CS(=O)(=O)c1cc(C(=O)N2CCc3ccc(Oc4ccc(C(F)(F)F)cc4)cc3C2)ccn1` [P-0081, (2-(methylsulfonyl)pyr-idin-4-yl)(7-(4-(trifluoro-methyl)phenoxy)-3,4-dihydroisoquinolin-2(1H)-yl)methanone] was tested. Which IC50 did it give?
**A.** 0.001 to 10 µM

**Q.** For `Cc1noc(CCC(=O)N2CCc3ccc(Oc4ccc(C(F)(F)F)cc4)cc3C2)n1` [P-0062, 3-(3-methyl-1,2,4-oxadi-azol-5-yl)-1-(7-(4-(trifluoromethyl)phen-oxy)-3,4-dihydroisoquin-olin-2(1H)-yl)propan-1-one], which IC50 is on record?
**A.** 0.001 to 10 µM

**Q.** Which IC50 does the source give for `NS(=O)(=O)CCC(=O)N1CCc2ccc(Oc3ccc(C(F)(F)F)c(F)c3)cc2C1` [P-0123, 3-(7-(3-fluoro-4-(trifluoromethyl)phen-oxy)-3,4-dihydroisoquin-olin-2(1H)-yl)-3-oxopro-pane-1-sulfonamide] here?
**A.** 0.001 to 10 µM

**Q.** For `Nc1nc(C(=O)N2CCc3c(cccc3-c3ccc(C(F)(F)F)cc3)C2)cs1` [P-0274], which IC50 is on record?
**A.** 0.001 to 10 µM

**Q.** `O=C(CC1CCCCC1)N1CCc2c(cccc2Oc2ccc(C(F)(F)F)cc2)C1` [P-0267, 2-cyclohexyl-1-(5-(4-(trifluoromethyl)phen-oxy)-3,4-dihydroisoquin-olin-2(1H)-yl)ethan-1-one] was tested. Which IC50 did it give?
**A.** 10 to 100 µM

**Q.** Which IC50 does the source give for `CN(C)CCC(=O)N1CCc2ccc(Oc3ccc(C(F)(F)F)c(F)c3)cc2C1` [P-0094, 3-(dimethylamino)-1-(7-(3-fluoro-4-(trifluoro-methyl)phenoxy)-3,4-dihydroisoquinolin-2(1H)-yl)propan-1-one] here?
**A.** 0.001 to 10 µM

**Q.** Which IC50 does the source give for `C=CC(=O)N1CCC(C(=O)N2CCc3c(cccc3Oc3ccc(C(F)(F)F)cc3)C2)C1` (stereo not drawn) [P-0253, 1-(3-(5-(4-(trifluorometh-yl)phenoxy)-1,2,3,4-tetrahydroisoquinoline-2-carbonyl)pyrrolidin-1-yl)prop-2-en-1-one] here?
**A.** 0.001 to 10 µM

**Q.** How did the IC50 turn out when `CCNS(=O)(=O)N1CCc2ccc(Oc3ccc(C(F)(F)F)cc3)cc2C1` [P-0017, N-Ethyl-7-(4-(trifluoromethyl)phenoxy)-3,4-dihydroisoquinoline-2(1H)-sulfonamide] was run?
**A.** 0.001 to 10 µM

**Q.** With `CS(=O)(=O)CCC(=O)N1CCc2ccc(Oc3ccc(C(F)(F)F)c(F)c3)cc2C1` [P-0085, 1-(7-(3-fluoro-4-(trifluoromethyl)phen-oxy)-3,4-dihydroisoquin-olin-2(1H)-yl)-3-(methyl-sulfonyl)propan-1-one] as the molecule, how does the IC50 read?
**A.** 0.001 to 10 µM

**Q.** With `O=C(N1CCc2ccc(Oc3ccc(C(F)(F)F)cc3)cc2C1)C12CC1C2` (stereo not drawn) [P-0011, bicyclo[1.1.0]butan-1-yl(7-(4-(trifluoromethyl)-phenoxy)-3,4-dihydro-isoquinolin-2(1H)-yl)-methanone] as the molecule, how does the IC50 read?
**A.** 0.001 to 10 µM

**Q.** `C[C@@H](CO)NC(=O)N1CCc2c(cccc2Oc2ccc(C(F)(F)F)cc2)C1` [P-0268, (S)-N-(1-hydroxypropan-2-yl)-5-(4-(trifluorometh-yl)phenoxy)-3,4-dihydro-isoquinoline-2(1H)-carboxamide] was tested. Which IC50 did it give?
**A.** 0.001 to 10 µM

**Q.** Which IC50 does the source give for `CC(=O)N1CCc2ccc(Oc3ccc(C(F)(F)F)cc3)cc2C1` [P-0013, 1-(7-(4-(trifluorometh-yl)phenoxy)-3,4-dihydroisoquinolin-2(1H)-yl)ethan-1-one] here?
**A.** 0.001 to 10 µM

**Q.** How did the IC50 turn out when `O=C(Cc1ncc[nH]1)N1CCc2ccc(Oc3ccc(C(F)(F)F)cc3)cc2C1` [P-0165, 2-(1H-imidazol-2-yl)-1-(7-(4-(trifluoromethyl)-phenoxy)-3,4-dihydroiso-quinolin-2(1H)-yl)ethan-1-one] was run?
**A.** 0.001 to 10 µM

**Q.** For `CC(C)NC(=O)N1CCc2c(cccc2Oc2ccc(C(F)(F)F)cc2)C1` [P-0233, N-isopropyl-5-(4-(trifluoromethyl)phen-oxy)-3,4-dihydroisoquin-oline-2(1H)-carboxamide], which IC50 is on record?
**A.** 0.001 to 10 µM

**Q.** How did the IC50 turn out when `NS(=O)(=O)CC(=O)N1CCc2ccc(Oc3ccc(C(F)(F)F)cc3)cc2C1` [P-0125, 2-oxo-2-(7-(4-(trifluoro-methyl)phenoxy)-3,4-dihydroisoquinolin-2(1H)-yl)ethane-1-sul-fonamide] was run?
**A.** 0.001 to 10 µM

**Q.** Which IC50 does the source give for `CN1CCC(C(=O)N2CCc3ccc(Oc4ccc(C(F)(F)F)c(F)c4)cc3C2)CC1` [P-0109, (7-(3-fluoro-4-(trifluoro-methyl)phenoxy)-3,4-dihydroisoquinolin-2(1H)-yl)(1-methylpiper-idin-4-yl)methanone] here?
**A.** 0.001 to 10 µM

**Q.** How did the IC50 turn out when `N#CCCC(=O)N1CCc2c(cccc2-c2ccc(C(F)(F)F)cc2)C1` [P-0273, 4-oxo-4-(5-(4-(trifluoromethyl)phenyl)-3,4-dihydroisoquinolin-2(1H)-yl)butanenitrile] was run?
**A.** 0.001 to 10 µM

**Q.** How did the IC50 turn out when `CS(=O)(=O)N1CC(C(=O)N2CCc3ccc(Oc4ccc(C(F)(F)F)cc4)cc3C2)C1` [P-0080, (1-(methylsulfonyl)azeti-din-3-yl)(7-(4-(trifluoro-methyl)phenoxy)-3,4-dihydroisoquinolin-2(1H)-yl)methanone] was run?
**A.** 0.001 to 10 µM

**Q.** With `Nc1nc(CC(=O)N2CCc3ccc(Oc4ccc(C(F)(F)F)cc4)cc3C2)cs1` [P-0137, 2-(2-aminothiazol-4-yl)-1-(7-(4-(trifluoromethyl)-phenoxy)-3,4-dihydroiso-quinolin-2(1H)-yl)ethan-1-one] as the molecule, how does the IC50 read?
**A.** 0.001 to 10 µM

**Q.** With `CS(=O)(=O)c1ccnc(N2CCc3ccc(Oc4ccc(C(F)(F)F)cc4)cc3C2)c1` [P-0227, 2-(4-(methylsulfonyl)pyr-idin-2-yl)-7-(4-(trifluoro-methyl)phenoxy)-1,2,3,4-tetrahydroisoquinoline] as the molecule, how does the IC50 read?
**A.** 0.001 to 10 µM

**Q.** For `CS(=O)(=O)NCC(=O)N1CCc2ccc(Oc3ccc(C(F)(F)F)cc3)cc2C1` [P-0071, N-(2-oxo-2-(7-(4-(trifluoromethyl)phen-oxy)-3,4-dihydroisoquin-olin-2(1H)-yl)ethyl)-methanesulfonamide], which IC50 is on record?
**A.** 0.001 to 10 µM

**Q.** For `O=C(CCS(=O)(=O)C(F)(F)F)N1CCc2ccc(Oc3ccc(C(F)(F)F)cc3)cc2C1` [P-0061, 1-(7-(4-(trifluorometh-yl)phenoxy)-3,4-dihydro-isoquinolin-2(1H)-yl)-3-((trifluoromethyl)sulfon-yl)propan-1-one], which IC50 is on record?
**A.** 0.001 to 10 µM

**Q.** With `CN1CC(C(=O)N2CCc3ccc(Oc4ccc(C(F)(F)F)c(F)c4)cc3C2)C1` [P-0097, (7-(3-fluoro-4-(trifluoro-methyl)phenoxy)-3,4-dihydroisoquinolin-2(1H)-yl)(1-methylazet-idin-3-yl)methanone] as the molecule, how does the IC50 read?
**A.** 0.001 to 10 µM

**Q.** `N#Cc1ccncc1NC(=O)N1CCc2ccc(Oc3ccc(C(F)(F)F)cc3)cc2C1` [P-0064, N-(4-Cyanopyridin-3-yl)-7-(4-(trifluoromethyl)phenoxy)-3,4-dihydroisoquinoline-2(1H)-carboxamide] was tested. Which IC50 did it give?
**A.** 0.001 to 10 µM

**Q.** For `CS(=O)(=O)c1ccc(C(=O)N2CCc3ccc(Oc4ccc(C(F)(F)F)cc4)cc3C2)s1` [P-0084, (5-(methylsulfonyl)thio-phen-2-yl)(7-(4-(trifluoro-methyl)phenoxy)-3,4-dihydroisoquinolin-2(1H)-yl)methanone], which IC50 is on record?
**A.** 0.001 to 10 µM

**Q.** Which IC50 does the source give for `CS(=O)(=O)CCCC(=O)N1CCc2ccc(Oc3ccc(C(F)(F)F)cc3)cc2C1` [P-0052, 4-(methylsulfonyl)-1-(7-(4-(trifluoromethyl)phen-oxy)-3,4-dihydroisoquin-olin-2(1H)-yl)butan-1-one] here?
**A.** 0.001 to 10 µM

**Q.** For `C=CC(=O)N1CCC(C(=O)N2CCc3ccc(Oc4ccc(C(F)(F)F)c(F)c4)cc3C2)C1` (stereo not drawn) [P-0119, 1-(3-(7-(3-fluoro-4-(trifluoromethyl)phen-oxy)-1,2,3,4-tetrahydro-isoquinoline-2-carbon-yl)pyrrolidin-1-yl)prop-2-en-1-one], which IC50 is on record?
**A.** 0.001 to 10 µM

Reference: patent US20250129028A1, “COMPOUNDS AND METHODS FOR YAP/TEAD MODULATION AND INDICATIONS THEREFOR” (Opna Bio SA, priority 2022, published 2025)
